The source of these data is patent US11149055B2, “Crystal form of lanosterol prodrug compound and application thereof” (GUANGZHOU OCUSUN OPHTHALMIC BIOTECHNOLOGY CO., LTD., priority 2018, dated 2021).

Each structure is given as a SMILES string. Where two headings read alike, the source gives them in different places.

Series [1] can be described thus: Hygroscopicity study by Dynamic Vapor Sorption (DVS). The format is physicochemical. The settings on record: 25° C. and 80% RH. Here is the method:
Dynamic Vapor Sorption (DVS)
Detection method: samples (10 mg to 20 mg) were placed in a DVS sample tray for testing.
Equilibrium: dm/dt: 0.01%/min: (Shortest: 10 min, longest: 180 min)
RH (%) gradient for testing: 10%
RH (%) gradient range for testing: 0% to 90% to 0%
The hygroscopicity was evaluated using the following scales:
SMS DVS Advantage Dynamic Vapor Sorption System
10 to 15 mg of the crystal form A of the compound of formula (I) was placed in the DVS sample tray for testing.

Series [2] in a line: Pre-stability experiment (influencing factors: high temperature, high humidity, light). The format is physicochemical. Conditions: 60° C. open; relative humidity 92.5% open; light 1 ICH; up to 10 days. How it is done:
The crystal form A of the compound of formula (I) was placed under the following 3 conditions and tested for appearance, XRPD, content and related substances at different time points.
10 mg of the crystal form A of the compound of formula (I) was accurately weighted and placed in a sample bottle, and then spread to form a thin layer. The samples were placed under 60° C., 92.5% RH, the mouth of the bottle was directly wrapped with aluminum foil which was punctured to get some small holes to ensure that the sample can fully contact the ambient air. The samples were placed respectively in a dry box and a glass jar containing saturated potassium nitrate solution. The illuminated sample (open, not covered with aluminum foil) and the illuminated control sample (open, the sample bottle was entirely covered with aluminum foil) were placed in the light box. 2 parts of the sample were weighted at each time point as the formal test sample. In addition, about 5 mg of the crystal form A of the compound of formula (I) was weighted for XRPD testing; the sample bottle was wrapped with aluminum foil which was punctured to get some small holes; the samples were also placed in the corresponding drying box and the glass jar containing saturated potassium nitrate solution. […]

Series [3] in a line: Penetration of ocular drugs in the body and conversion to lanosterol (aqueous humor concentration after eye drops). Conditions: for AUC: New Zealand white, rabbit; for Penetration into the aqueous humor: from the cornea or through other routes. The format is in vivo, New Zealand white rabbit. Here is the method: In this study, New Zealand white rabbits (body weight was more than 2 kg, aged more than 12 weeks) were used as experimental animals. Each compound was studied in two New Zealand white rabbits. Each rabbit was instilled with 50 μL of eye drops in each eye, three eyes were used to collect aqueous humor samples and one eye was used as a backup. The formula of the eye drops was 1.2% hydroxypropyl methylcellulose (E5 size), 20.5% poloxamer (P407 size), 1.6% poloxamer (P188 size), the concentration of the compound was 5 mM, and the eye drops were homogeneous suspensions. After the eye drops were dripped into the rabbit's eyes, the anterior aqueous humor was collected 0.5, 2, 4 and 6 hours after administration. The volume of each sample was not more than 50 μL. Each animal was given mild anesthesia before collecting samples. Three samples were collected at each time point. The collected aqueous humor samples were stored in dry ice immediately after collection or stored in a refrigerator at −80±10° C. After the sample collection, the animals were euthanized. The concentration of the compound in each sample was determined using a triple quadrupole mass spectrometer (API 4000). Tables 3 and 4 show the DMPK determination conditions in vivo; Tables 5 and 6 show the drug concentration in the aqueous humor after compound lanosterol (parent drug) and the prodrug compound were dripped into eyes ([…]).

For series [4], the system named is sodium selenite-induced neonatal New Zealand rabbit cataract model. Put plainly: Slit lamp observation, sodium selenite-induced cataract model. Format: in vivo. The settings on record: eye drops right eye 3 times every day for 42 days. Here is the method: (§1) P7 days old neonatal New Zealand rabbits, normal grade, and 5 young rabbits per litter were breast-fed with a mother rabbit.
(§2) The experimental young rabbits were randomly divided into 5 groups with 5 rabbits per group.
(§3) 2) Model control group (MC): in the P10 day, the young rabbits were injected subcutaneously with sodium selenite solution (in physiological saline) at a dose of 20 μmol/kg body weight, and after the P15 day, drug-free blank eyes drops were dripped into the right eye 3 times every day for 42 days.
(§4) 3) Positive control group (PC): in the P10 day, the young rabbits were injected subcutaneously with sodium selenite solution (in physiological saline) at a dose of 20 μmol/kg body weight, and after the P15 day, Kary Uni eye drops (Santen Pharmaceutical Co., Ltd in Japan) were dripped into the right eye 3 times every day for 42 days.
(§5) 4) Lanosterol eye drops treatment group (LT): in the P10 day, the young rabbits were injected subcutaneously with sodium selenite solution (in physiological saline) at a dose of 20 μmol/kg body weight, and after the P15 day, lanosterol eye drops were dripped into the right eye 3 times every day for 42 days. […]

For series [5] the test system is unchanged. Put plainly: Lens transparency test in vitro, sodium selenite-induced cataract model. The format is in vivo. The settings on record: after 42 days of administration, left eye as self-control. Here is the method: as §1, §2, §3, §4, §5
The test system of series [6] is lens glutathione peroxidase (GSH-PX) activity. Put plainly: Lens glutathione peroxidase (GSH-PX) activity assay, sodium selenite-induced cataract model. The format is in vivo, New Zealand rabbit. Conditions: after 42 days of administration. Here is the method: as §1, §2, §3, §4
4) Lanosterol eye drops treatment group (LT): in the P10 day, the young rabbits were injected subcutaneously with sodium selenite solution (in physiological saline) at a dose of 20 μmol/kg body weight, and after the P15 day, lanosterol eye drops were dripped into the right eye 3 times every day for 42 days.
5) Lanosterol prodrug 026 eye drops treatment group (026, the compound of formula (I)): in the P10 day, the young rabbits were injected subcutaneously with sodium selenite solution (in physiological saline) at a dose of 20 μmol/kg body weight, and after the P15 day, lanosterol prodrug 026 eye drops were dripped into the right eye 3 times every day for 42 days.
3) Glutathione peroxidase (GSH-PX) activity assay: GSH-PX activity of the isolated rabbit lens in each group was determined by the method provided in the specification of GSH-PX activity detection kit (Nanjing Jiancheng Bioengineering Institute). The experimental data was analyzed by One-Way ANOVA with SPSS statistical software. The LSD method was used to compare the groups, and the statistical difference level was p<0.05.

Series [7] concerns ultraviolet-induced New Zealand rabbit cataract model. Put plainly: Slit lamp observation, ultraviolet-induced cataract model. The format is in vivo. Conditions: ultraviolet model (313 nm UV 24 hours); eye drops right eye 3 times every day for 42 days. How it is done:
(§6) Adult New Zealand rabbits 2.0-2.5 kg, normal grade, male and female, a total of 25.
(§7) The experimental rabbits were randomly divided into 5 groups with 5 rabbits per group.
(§8) 2) Model control group (MC): 313 nm UV irradiation for 24 hours to make model, then drug-free blank eye drops were dripped into the right eye 3 times every day for 42 days.
(§9) 3) Positive control group (PC): 313 nm UV irradiation for 24 hours to make model, then Kary Uni eye drops (Santen Pharmaceutical Co., Ltd in Japan) were dripped into the right eye 3 times every day for 42 days.
(§10) 4) Lanosterol eye drops treatment group (LT): 313 nm UV irradiation for 24 hours to make model, then lanosterol eye drops were dripped into the right eye 3 times every day for 42 days.
(§11) 5) Lanosterol prodrug 026 eye drops treatment group (026): 313 nm UV irradiation for 24 hours to make model, then the lanosterol prodrug 026 eye drops were dripped into the right eye 3 times every day for 42 days.

Series [8] shares this test system. Put plainly: Lens transparency test in vitro, ultraviolet-induced cataract model. Format: in vivo. The settings on record: after 42 days of administration, left eye as self-control. How it is done: as §6, §7, §8, §9, §10, §11
2) Lens transparency test in vitro: on the last day, the animal's eyeball was dissected, the lens containing the capsule was completely separated, and the lens was placed on a grid paper (2.12×2.12 mm). The photographs show the sharpness of the grid photographed through the lens.

Series [9] concerns lens glutathione peroxidase (GSH-PX) activity. As to the kind of experiment: Lens glutathione peroxidase (GSH-PX) activity assay, ultraviolet-induced cataract model. The settings on record: after 42 days of administration. Format: in vivo, New Zealand rabbit. Here is the method: as §6, §7, §8, §9, §10, §11
3) Glutathione peroxidase (GSH-PX) activity assay: GSH-PX activity of the isolated rabbit lens in each group was determined by the method provided in the specification of GSH-PX activity detection kit (Nanjing Jiancheng Bioengineering Institute). The experimental data were analyzed by One-Way ANOVA with SPSS statistical software. The LSD method was used to compare the groups, and the statistical difference level was p<0.05.

With `CC(C)=CCC[C@@H](C)[C@H]1CC[C@@]2(C)C3=C(CC[C@]12C)[C@@]1(C)CC[C@H](OC(=O)c2ccccc2O)C(C)(C)C1CC3` (some centres unmarked), in series [1], the “Hygroscopic weight gain (ΔW)” value was determined as 0.747% and the Hygroscopicity scale result is “slightly hygroscopic”. Also, in [2], the “Crystal form stability (appearance, XRPD, content, related substances)” value is “the crystal form has not changed after the experiment, and its stability is good”.

The term AUC denotes the area under the concentration-time curve, a measure of exposure. Turning to `CC(C)=CCC[C@@H](C)[C@H]1CC[C@@]2(C)C3=C(CC[C@]12C)[C@@]1(C)CC[C@H](O)C(C)(C)[C@@H]1CC3` [Lanosterol], the exposure (AUC) in series [3] (aqueous humor, topical, 250 nmol per eye, 250 nmol lanosterol dripped into each eye, read-out: AUC (exposure amount) of lanosterol in the aqueous humor) stood at 1.78 µM·h. In addition, the “Penetration into the aqueous humor” value in [3] (eye drops) is on record as “capable of penetrating into the aqueous humor”. For the same compound, the “Cataract symptoms by slit lamp observation, after vs before administration” value in series [4] and in [7] was “no evident change” throughout. Moreover, the “Lens transparency in vitro of administered right eye” value in series [5] and in series [8] was “no significant change in lens transparency” throughout. The “Effect on lens GSH-PX activity compared with the other treatments” value in series [6] was “significantly lower than that of 026 and Kary Uni”; in [9] it was “significantly lower than that of 026 and Kary Uni”. For the same compound, the “Lens GSH-PX activity vs MC group” value in [6] and in [9] was “no statistical difference compared to the MC group” in each case.

Turning to `CC(C)=CCC[C@@H](C)[C@H]1CC[C@@]2(C)C3=C(CC[C@]12C)[C@@]1(C)CC[C@H](OC(=O)c2ccccc2O)C(C)(C)C1CC3` (some centres unmarked) [the compound of formula (I)], the “Average concentration of the compound of formula (I) in the aqueous humor” value in series [3] (250 nmol the compound of formula (I) dripped into each eye, analyte prodrug, 0.5 hour) is recorded as 41.0 nM; in series [3] (250 nmol the compound of formula (I) dripped into each eye, analyte prodrug, 2 hour), 33.3 nM; in [3] (250 nmol the compound of formula (I) dripped into each eye, analyte prodrug, 4 hour), 25.5 nM; in series [3] (250 nmol the compound of formula (I) dripped into each eye, analyte prodrug, 6 hour) it was “BQL”. Besides, the AUC in series [3] (in vivo, 250 nmol the compound of formula (I) dripped into each eye, analyte prodrug, read-out: AUC (exposure amount) of the compound of formula (I) in the aqueous humor) came to 0.124 µM·h. In [3] (during the infiltration process), the “Conversion into the parent drug lanosterol” value is “capable of converting into the parent drug lanosterol”. In addition, in series [3] (eye drops), the “Lanosterol concentration and exposure in the aqueous humor compared with lanosterol eye drops” value is “higher concentration and exposure of lanosterol in the aqueous humor”. Besides, the “Penetration into the aqueous humor” value in series [3] (eye drops) is “capable of penetrating into the aqueous humor”. Further, the “Cataract symptoms by slit lamp observation, after vs before administration” value in series [4] and in [7] was “cataract symptoms were significantly reduced” throughout. Besides, the “Lens transparency in vitro of administered right eye” value in series [5] and in [8] was “significantly higher than that of the left eye” in each case. Further, the “Effect on lens GSH-PX activity compared with the other treatments” value in series [6] and in series [9] was “better than that of Kary Uni” each time. Further, the “Lens GSH-PX activity vs MC group” value in series [6] and in [9] was “capable of increasing the GSH-PX activity of the lens” in each case.
